Test results taken from publication PMC10009752 (Journal of Medicinal Chemistry, 2023).

Key:
[1] = tested on: 5′-biotinylated dsDNA (DNA, duplex) TGTAATCGTAGGTTGGTCCCATCACCCACC/GGTGGGTGATGGGACCAACCTACGATTACA; experiment: resonant mirror optical biosensor kinetics (IAsys plus); details: 138 mM NaCl, 2.7 mM KCl; PBS (10 mM Na2HPO4), pH 7.4, 37 °C; monoexponential fit
[2] = tested on: CRL-1831 cells; experiment: Cytoplasmic cholesterol levels (AmplexRed), CRL-1831; type: cell-based, human; details: 10 μM, 4 h
Protocol: After 4 h exposure to 10 μM of both compounds at 37 °C, cells were trypsinized, washed with PBS, and pelleted by centrifugation at 8000g for 5 min. Cytoplasmic cholesterol levels were quantitated using the AmplexRed Cholesterol Assay kit.[48] Briefly, the pellets were resuspended in the reaction buffer and lysed with a 29G syringe. The working solution, containing the Amplex Red reagent (300 mM), horseradish peroxidase (2 U/mL), cholesterol oxidase (2 U/mL), and cholesterol esterase (0.2 U/mL) in 1× reaction buffer was freshly prepared before each experiment. […] Working solution (50 μL), 40 μL of 1× reaction buffer, and 40 μL of cell lysates were placed in a 96-well plate and incubated at 37 °C for 30 min. After 4 h, fluorescence measurements were recorded (λexc = 540 nm, λem = 590 nm) using a SpectraMax Gemini XPS microplate reader (Molecular Device, Milan – Italy).

Row | SMILES | KD [1] [µM] | cytoplasmic cholesterol concentration, CRL-1831 [2]
1 | Cc1nn(-c2ccccc2)c([O-])c1C(=O)c1ccco1.Cc1nn(-c2ccccc2)c([O-])c1C(=O)c1ccco1.Cc1nn(-c2ccccc2)c([O-])c1C(=O)c1ccco1.[Ga+3] | 3.63 ± 1.88 | –
2 | Cc1nn(-c2ccccc2)c([O-])c1C(=O)c1cccs1.Cc1nn(-c2ccccc2)c([O-])c1C(=O)c1cccs1.Cc1nn(-c2ccccc2)c([O-])c1C(=O)c1cccs1.[Ga+3] | 2.24 ± 1.36 | –
3 | CCC(C)(C)C(=O)O[C@H]1C[C@@H](C)C=C2C=C[C@H](C)[C@H](CC[C@@H]3C[C@@H](O)CC(=O)O3)[C@H]21 [Simvastatin, reference compound] | – | significantly decreased

Second part, led by results:

Row | KD [1] [µM] | SMILES | cytoplasmic cholesterol concentration, CRL-1831 [2]
4 | 0.76 ± 0.54 | Cc1nn(-c2ccccc2)c([O-])c1C(=O)c1ccccc1.Cc1nn(-c2ccccc2)c([O-])c1C(=O)c1ccccc1.Cc1nn(-c2ccccc2)c([O-])c1C(=O)c1ccccc1.[Ga+3] | –
5 | 3.27 ± 0.78 | Cc1nn(-c2ccccc2)c([O-])c1C(=O)c1ccc(C(C)(C)C)cc1.Cc1nn(-c2ccccc2)c([O-])c1C(=O)c1ccc(C(C)(C)C)cc1.Cc1nn(-c2ccccc2)c([O-])c1C(=O)c1ccc(C(C)(C)C)cc1.[Ga+3] | –
6 | 3.34 ± 1.67 | COc1ccc(C(=O)c2c(C)nn(-c3ccccc3)c2[O-])cc1.COc1ccc(C(=O)c2c(C)nn(-c3ccccc3)c2[O-])cc1.COc1ccc(C(=O)c2c(C)nn(-c3ccccc3)c2[O-])cc1.[Ga+3] | –
